Reference: US8734673B2, “Boron selective ionic liquids and polymeric ionic liquids, methods of making and methods of use thereof” (The University of Toledo, priority 2008, dated 2014)
Read-outs that look alike come from different tables or passages of the source.

Key:
[1] = Miscibility/solubility in heptane and water
Excerpt: The miscibility/solubility of all ionic liquids in both heptane and water are indicated as well.
The solubility behavior of all thirty-nine geminal dicationic ionic liquids in water and heptane also was explored.

[2] = Solvation interaction parameters by inverse gas-liquid chromatography (Abraham model); format: physicochemical
Procedure: The preparation of the capillary columns for inverse gas-liquid chromatographic analysis was performed using a previously described procedure. All capillary columns had efficiencies between 2100 to 2500 plates/meter. Characterization of the capillary columns and probe molecule descriptions are listed in supplemental information. Multiple linear regression analysis (MLRA) and statistical calculations were performed using the program Analyse-it (Microsoft, USA).
Solvation Characteristics. We have previously reported that the Abraham solvation model, a linear free energy approach that utilizes inverse gas-liquid chromatography to describe the solvation properties of a liquid, can be used to characterize room temperature ionic liquids. Described by equation 1, the model provides the so-called “interaction parameters” (r, s, a, b, l) by using multiple linear regression analysis to fit the retention factor (k, determined chromatographically) to the solute descriptors (R2, π2^Hα2H, β2^H, log L^16) for a wide variety of probe solute molecules. […]
Previously we characterized a large number of room temperature ionic liquids in terms of multiple solvation interactions using the solvation parameter model, shown in equation log k=c+rR2+sπ2^H+aα2^H+bβ2^H+l log L^16 [3] This approach utilizes inverse gas-liquid chromatography and allows the use of a large number of probe molecules to deconvolute solute retention in terms of the type and magnitude of individual solvation interactions. The solute descriptors (R2, π2^H, α2^H, .β2^H, log L^16) from Equation 3 are obtained from the literature for many probe molecules containing a variety of functional groups. The retention factor is determined chromatographically. The solute descriptors and retention factors are subjected to multiple linear regression analysis to obtain the interaction parameter coefficients (r, s, a, b, l), which ultimately characterize the stationary phase: r is the ability of the diionic liquid containing-stationary phase to interact with .π0 and n electrons of the solute, s is a measure of the dipolarity/polarizability of the diionic liquid containing-stationary phase, a defines the diionic liquid containing-stationary phase hydrogen bond basicity, b is a measure of the hydrogen bond acidity, and l refers to the ability of the diionic liquid containing-stationary phase to separate adjacent members of a homologous series.
Test solutes used to determine interaction parameters and solvation thermodynamics were dissolved in dichloromethane. […] Split injection and flame ionization detection were utilized with injection and detection temperatures of 250° C. Helium was used as the carrier gas with a column inlet pressure of 3.1 psi and flow rate of 1.0 mL/min. Methane was used to determine the dead volume of the column. Multiple linear regression analysis and statistical calculations were performed using the program Analyze-it (Microsoft).

[3] = values taken from reference 31, cited from earlier work

| Compound | Miscibility with Heptane [1] | Miscibility with Water [1] | Interaction parameter a (hydrogen bond basicity) ([2]; 40° C.) | Interaction parameter b (hydrogen bond acidity) ([2]; 40° C.) | Interaction parameter c ([2]; 40° C.) | Interaction parameter l (dispersion forces) ([2]; 40° C.) | Interaction parameter r (interaction via nonbonding and π-electrons) ([2]; 40° C.) | Interaction parameter s (dipolarity/polarizability) ([2]; 40° C.) | Interaction parameter a (hydrogen bond basicity) ([2]; 70° C.) | Interaction parameter b (hydrogen bond acidity) ([2]; 70° C.) | Interaction parameter c ([2]; 70° C.) | Interaction parameter l (dispersion forces) ([2]; 70° C.) | Interaction parameter r (interaction via nonbonding and π-electrons) ([2]; 70° C.) | Interaction parameter s (dipolarity/polarizability) ([2]; 70° C.) | Interaction parameter a (hydrogen bond basicity) ([2]; 100° C.) | Interaction parameter b (hydrogen bond acidity) ([2]; 100° C.) | Interaction parameter c ([2]; 100° C.) | Interaction parameter l (dispersion forces) ([2]; 100° C.) | Interaction parameter r (interaction via nonbonding and π-electrons) ([2]; 100° C.) | Interaction parameter s (dipolarity/polarizability) ([2]; 100° C.) | also measured |
| --- | --- | --- | --- | --- | --- | --- | --- | --- | --- | --- | --- | --- | --- | --- | --- | --- | --- | --- | --- | --- | --- |
| 1,3-di(2,3-dimethylimidaolium)propane di-bromide [C3(m2im)2-Br] | Immiscible | Miscible |  |  |  |  |  |  |  |  |  |  |  |  |  |  |  |  |  |  |  |
| 1,3-di(2,3-dimethylimidazolium)propane di-hexafluorophosphate [C3(m2im)2-PF6] | Immiscible | Immiscible |  |  |  |  |  |  |  |  |  |  |  |  |  |  |  |  |  |  |  |
| CCCCn1cc[n+](C)c1.O=S(=O)([N-]S(=O)(=O)C(F)(F)F)C(F)(F)F [BMIM-NTf2, 1-butyl-3-methylimidazolium bis[(trifluoromethylsulfonyl)imide], reference compound] |  |  | 2.02 | 0.36 | −2.87 | 0.63 | 0 | 1.89 | 1.75 | 0.38 | −3.03 | 0.56 | 0 | 1.67 | 1.55 | 0.24 | −3.13 | 0.49 | 0 | 1.60 |  |
| CCCC[N+]1(C)CCCC1.O=S(=O)([N-]S(=O)(=O)C(F)(F)F)C(F)(F)F [BMPY-NTf2, 1-butyl-1-methylpyrrolidinium bis[(trifluoromethylsulfonyl)imide]] |  |  |  |  |  |  |  |  |  |  |  |  |  |  |  |  |  |  |  |  | Interaction parameter a (hydrogen bond basicity) ([3]; 40° C.): 2.08; Interaction parameter b (hydrogen bond acidity) ([3]; 40° C.): 0.16; Interaction parameter c ([3]; 40° C.): −2.78; Interaction parameter l (dispersion forces) ([3]; 40° C.): 0.68; Interaction parameter r (interaction via nonbonding and π-electrons) ([3]; 40° C.): 0; Interaction parameter s (dipolarity/polarizability) ([3]; 40° C.): 1.69; Interaction parameter a (hydrogen bond basicity) ([3]; 70° C.): 1.78; Interaction parameter b (hydrogen bond acidity) ([3]; 70° C.): 0; Interaction parameter c ([3]; 70° C.): −2.80; Interaction parameter l (dispersion forces) ([3]; 70° C.): 0.56; Interaction parameter r (interaction via nonbonding and π-electrons) ([3]; 70° C.): 0; Interaction parameter s (dipolarity/polarizability) ([3]; 70° C.): 1.53; Interaction parameter a (hydrogen bond basicity) ([3]; 100° C.): 1.55; Interaction parameter b (hydrogen bond acidity) ([3]; 100° C.): 0; Interaction parameter c ([3]; 100° C.): −2.92; Interaction parameter l (dispersion forces) ([3]; 100° C.): 0.48; Interaction parameter r (interaction via nonbonding and π-electrons) ([3]; 100° C.): 0; Interaction parameter s (dipolarity/polarizability) ([3]; 100° C.): 1.44 |
| Cn1cc[n+](CCC[n+]2ccn(C)c2)c1.F[B-](F)(F)F.F[B-](F)(F)F [C3(mim)2-BF4, 1,3-di(3-methylimidazolium)propane di-tetrafluoroborate] | Immiscible | Miscible |  |  |  |  |  |  |  |  |  |  |  |  |  |  |  |  |  |  |  |
| Cn1cc[n+](CCC[n+]2ccn(C)c2)c1.[Br-].[Br-] [C3(mim)2-Br, 1,3-di(3-methylimidazolium)propane di-bromide] | Immiscible | Miscible |  |  |  |  |  |  |  |  |  |  |  |  |  |  |  |  |  |  |  |
| Cn1cc[n+](CCC[n+]2ccn(C)c2)c1.F[P-](F)(F)(F)(F)F.F[P-](F)(F)(F)(F)F [C3(mim)2-PF6, 1,3-di(3-methylimidazolium)propane di-hexafluorophosphate] | Immiscible | Immiscible |  |  |  |  |  |  |  |  |  |  |  |  |  |  |  |  |  |  |  |
| C[N+]1(CCC[N+]2(C)CCCC2)CCCC1.F[P-](F)(F)(F)(F)F.F[P-](F)(F)(F)(F)F [C3(mpy)2-PF6, 1,3-di(methylpyrrolidinium)propane di-hexafluorophosphate] | Immiscible | Immiscible |  |  |  |  |  |  |  |  |  |  |  |  |  |  |  |  |  |  |  |
| C[n+]1ccn(CCCCn2cc[n+](C)c2)c1.O=S(=O)([N-]S(=O)(=O)C(F)(F)F)C(F)(F)F.O=S(=O)([N-]S(=O)(=O)C(F)(F)F)C(F)(F)F [C4(mim)2-NTf2] |  |  | 2.11 | 0.50 | −2.94 | 0.56 | 0.25 | 2.01 | 1.77 | 0.45 | −2.91 | 0.44 | 0.22 | 1.78 | 1.57 | 0.33 | −3.06 | 0.37 | 0.20 | 1.69 |  |
| Cn1cc[n+](CCCCCCCCC[n+]2ccn(C)c2)c1.O=S(=O)([N-]S(=O)(=O)C(F)(F)F)C(F)(F)F.O=S(=O)([N-]S(=O)(=O)C(F)(F)F)C(F)(F)F [C9(mim)2-NTf2, 1,9-di(3-methylimidazolium)nonane di-bis[(trifluoromethyl)sulfonyl]imidate] |  |  | 1.83 | 0.47 | −2.86 | 0.62 | 0.16 | 1.81 | 1.75 | 0.20 | −2.95 | 0.51 | 0.11 | 1.76 | 1.50 | 0.15 | −3.06 | 0.43 | 0.11 | 1.64 |  |
| O=S(=O)([N-]S(=O)(=O)C(F)(F)F)C(F)(F)F.O=S(=O)([N-]S(=O)(=O)C(F)(F)F)C(F)(F)F.c1ccc(Cn2cc[n+](CCCCCCCCCCCC[n+]3ccn(Cc4ccccc4)c3)c2)cc1 [C12(benzim)2-NTf2, 1,12-di(3-benzylimidazolium)dodecane di-bis[(trifluoromethyl)sulfonyl]imidate] |  |  | 1.96 | 0.84 | −2.94 | 0.66 | 0.11 | 1.65 | 1.75 | 0.57 | −3.07 | 0.56 | 0.07 | 1.62 | 1.44 | 0.52 | −3.12 | 0.46 | 0 | 1.47 |  |
